Literature values as cited in patent US20180140566A1, “ACETAMINOPHEN AND TRAMADOL COMPOUND ORAL SOLUTION” (BORA PHARMACEUTICALS CO., LTD., priority 2016, published 2018).

SMILES | solubility in acetone (acetone, in words) | solubility in water (water, in words) | amount of acetaminophen dissolved per milliliter of water (per milliliter (mL) of water, at 25 degrees Celsius)
COc1cccc(C2(O)CCCCC2CN(C)C)c1 (stereo not drawn) [Tramadol, tramadol] | hardly dissolves | makes great aqueous solutions | 
CC(=O)Nc1ccc(O)cc1 [acetaminophen] |  |  | no more than 14.00 mg
